# Source: PMC9224258, “Zinc Coordination Compounds with Benzimidazole Derivatives: Synthesis, Structure, Antimicrobial Activity and Potential Anticancer Application” (International Journal of Molecular Sciences, 2022)
# Where two headings read alike, the source gives them in different places.
# Experiments:
# [1] = test system: S. typhimurium ATCC 14028; test: micro-dilution broth MIC; type: cell-based, Salmonella Typhimurium; conditions: Gram-negative
# Procedure: (§1) The cytotoxic effect of the compounds was evaluated using glioblastoma (T98G), neuroblastoma (SK-N-AS) and lung adenocarcinoma (A549) cell lines and human normal skin fibroblasts (CCD-1059Sk). T98G and SK-N-AS cells were cultured in DMEM, high glucose; A549 cells were cultured in DMEM/F12; and CCD-1059Sk cells were cultured in MEM. All media were supplemented with 10% FBS, 100 U/mL of penicillin and […] of streptomycin (PenStrep). Cells were incubated at 37 °C in a humidified atmosphere of 5% CO2. Stock solutions were prepared by dissolving the compounds in sterile dimethyl sulfoxide (DMSO) to obtain the concentration of 50 mg/mL. The cells were seeded into 96-well sterile plates (Nunc) at a density of 1 × 10^5 cells/mL. After 24 h of incubation, the medium was removed from each well, and then cells were incubated for the next 24 h with different concentrations of the tested compounds (1–100 µg/mL) in respective medium containing 2% FBS. Cytotoxicity of the compounds was evaluated using the MTT assay, which is based on the conversion of 3-(4,5-dimethylthiazol-2-yl)-2,5-diphenyltetrazolium bromide (MTT) into dark-blue formazan crystals. Briefly, after 24 h incubation of cells with varying concentrations of the tested compounds, all culture media were removed from the plates. Cells were washed with PBS, and then 100 µL of medium containing 10% MTT solution (5 mg/mL) was added to each well. After 3 h incubation, 100 µL (per well) of 10% SDS buffer solution was added to solubilize formazan crystals. After overnight incubation, the absorbance was measured at 570 nm using a microplate reader (Epoch, BioTek Instruments). Experiments were repeated twice, and the measurements in each experiment were run in triplicate. The viability of the investigated cells was expressed as a percentage of the viability of the untreated cells, and the results were transformed into IC50 values (expressed as mean ± SD). […] The complexes were screened for antibacterial and antifungal activities by micro-dilution broth method using Mueller–Hinton broth for growth of bacteria or Mueller–Hinton broth with 2% glucose for growth of fungi. Minimal inhibitory concentrations (MICs) of the tested derivatives were evaluated for the panel of the reference microorganisms from the American Type Culture Collection (ATCC), including Gram-negative bacteria (Escherichia coli ATCC 25922, Salmonella Typhimurium ATCC14028, Klebsiella pneumoniae ATCC 13883, Pseudomonas aeruginosa ATCC 9027, Proteus mirabilis ATCC 12453), Gram-positive bacteria (Staphylococcus aureus ATCC 25923, Staphylococcus epidermidis ATCC 12228, Micrococcus luteus ATCC 10240, Enterococcus faecalis ATCC 29212, Bacillus subtilis ATCC 6633, Bacillus cereus ATCC 10876) and fungi (Candida albicans ATCC 10231, Candida parapsilosis ATCC 22019, C. glabrata ATCC 90030).
# E. coli ATCC 25922 = test: micro-dilution broth MIC; type: cell-based, Escherichia coli
# Procedure: as §1
# P. mirabilis ATCC 12453 = test: micro-dilution broth MIC; type: cell-based, Proteus mirabilis
# Procedure: as §1
# K. pneumoniae ATCC 13883 = test: micro-dilution broth MIC; type: cell-based, Klebsiella pneumoniae
# Procedure: as §1
# P. aeruginosa ATCC 9027 = test: micro-dilution broth MIC; type: cell-based, Pseudomonas aeruginosa
# Procedure: as §1
# [2] = test system: glioblastoma (T98G) cell line; test: MTT cytotoxicity assay, T98G; type: cell-based; conditions: MTT assay after 24 h incubation; for IC50: Homo sapiens, T98G, read-out: IC50 ± SD, T98G
# Procedure: as §1
# [3] = test system: neuroblastoma (SK-N-AS) cell line; test: MTT cytotoxicity assay, SK-N-AS; type: cell-based, human; conditions: MTT assay after 24 h incubation; for IC50: Homo sapiens, SK-N-AS, read-out: IC50 ± SD, SK-N-AS
# Procedure: as §1
# [4] = test system: lung adenocarcinoma (A549) cell line; test: MTT cytotoxicity assay, A549; type: cell-based, human; conditions: MTT assay after 24 h incubation; for IC50: Homo sapiens, A549, read-out: IC50 ± SD, A549
# Procedure: as §1
# [5] = test system: human normal skin fibroblasts (CCD-1059Sk); test: MTT cytotoxicity assay, normal fibroblasts; type: cell-based; conditions: MTT assay after 24 h incubation, normal cells; for IC50: Homo sapiens, CCD-1059Sk, read-out: IC50 ± SD, CCD-1059-Sk
# Procedure: as §1
# S. aureus ATCC 25923 = test: micro-dilution broth MIC; type: cell-based, Staphylococcus aureus
# Procedure: as §1
# [6] = test system: S. epidermidis ATCC 12228; test: micro-dilution broth MIC; type: cell-based, Staphylococcus epidermidis
# Procedure: as §1
# M. luteus ATCC 10240 = test: micro-dilution broth MIC; type: cell-based, Micrococcus luteus
# Procedure: as §1
# E. faecalis ATCC 29212 = test: micro-dilution broth MIC; type: cell-based, Enterococcus faecalis
# Procedure: as §1
# B. subtilis ATCC 6633 = test: micro-dilution broth MIC; type: cell-based, Bacillus subtilis
# Procedure: as §1
# B. cereus ATCC 10876 = test: micro-dilution broth MIC; type: cell-based, Bacillus cereus
# Procedure: as §1
# C. glabrata ATCC 2091 = test: micro-dilution broth MIC; type: cell-based
# C. albicans ATCC 102231 = test: micro-dilution broth MIC; type: cell-based, Candida albicans
# Procedure: as §1
# [7] = test system: C. parapsilosis ATCC 22019; test: micro-dilution broth MIC; type: cell-based, Candida parapsilosis
# Procedure: as §1
# [8] = test system: lung adenocarcinoma (A549) cell line; set-up: method as in earlier work; conditions: incubated for 24 h with A549 cells; ref 77 (Zhang F. et al.); cited from earlier work
# [9] = Salmonella enterica, read-out: MIC
# [10] = Escherichia coli, ATCC25922, Gram-negative, read-out: MIC
# [11] = Proteus mirabilis, ATCC12453, Gram-negative, read-out: MIC
# [12] = Klebsiella pneumoniae, ATCC13883, Gram-negative, read-out: MIC
# [13] = Pseudomonas aeruginosa, ATCC9027, Gram-negative, read-out: MIC
# [14] = S. aureus ATCC 25923, Gram-positive
# [15] = S. epidermidis ATCC 12228, Gram-positive
# [16] = M. luteus ATCC 10240, Gram-positive
# [17] = E. faecalis ATCC 29212, Gram-positive
# [18] = B. subtilis ATCC 6633, Gram-positive
# [19] = B. cereus ATCC 10876, Gram-positive
# [20] = Staphylococcus aureus, ATCC25923, S. aureus ATCC 25923, Gram-positive, read-out: MIC
# [21] = Staphylococcus epidermidis, ATCC12228, S. epidermidis ATCC 12228, Gram-positive, read-out: MIC
# [22] = Micrococcus luteus, ATCC10240, M. luteus ATCC 10240, Gram-positive, read-out: MIC
# [23] = Enterococcus faecalis, ATCC29212, E. faecalis ATCC 29212, Gram-positive, read-out: MIC
# [24] = Bacillus subtilis, ATCC6633, B. subtilis ATCC 6633, Gram-positive, read-out: MIC
# [25] = Bacillus cereus, ATCC10876, B. cereus ATCC 10876, Gram-positive, read-out: MIC
# [26] = Nakaseomyces glabratus, ATCC2091, yeast, read-out: MIC
# [27] = Candida albicans, ATCC102231, yeast, read-out: MIC
# [28] = Lodderomyces parapsilosis, ATCC22019, yeast, read-out: MIC
Structure (SMILES),"MIC [1, 9] [µg/mL]",MIC (E. coli ATCC 25922; [10]) [µg/mL],MIC (P. mirabilis ATCC 12453; [11]) [µg/mL],MIC (K. pneumoniae ATCC 13883; [12]) [µg/mL],MIC (P. aeruginosa ATCC 9027; [13]) [µg/mL],MIC (C. glabrata ATCC 2091; yeast) [µg/mL],MIC (C. albicans ATCC 102231; yeast) [µg/mL],MIC ([7]; yeast) [µg/mL],IC50 [2] [µg/mL],IC50 [3] [µg/mL],IC50 [4] [µg/mL],IC50 [5] [µg/mL],MIC (S. aureus ATCC 25923; [20]) [µg/mL],"MIC [6, 21] [µg/mL]",MIC (M. luteus ATCC 10240; [22]) [µg/mL],MIC (E. faecalis ATCC 29212; [23]) [µg/mL],MIC (B. subtilis ATCC 6633; [24]) [µg/mL],MIC (B. cereus ATCC 10876; [25]) [µg/mL],MIC (C. glabrata ATCC 2091; [26]) [µg/mL],MIC (C. albicans ATCC 102231; [27]) [µg/mL],other results
"O=C(O)c1cn(C2CC2)c2cc(N3CCNCC3)c(F)cc2c1=O [Cip, ciprofloxacin, reference compound]",0.061,0.015,0.03,0.12,0.49,,,,,,,,,,,,,,,,
[Cl][Zn][Cl].[Cl][Zn][Cl].c1cnc2[nH]c(-c3ccncc3)nc2c1.c1cnc2[nH]c(-c3ccncc3)nc2c1 [Complex C2],,,,,,>1000,1000,>1000,,,,,,,,,,,,,"IC50 ± SD, T98G [2]: 24.29 ± 0.11 µg/mL; IC50 ± SD, SK-N-AS [3]: 33.72 ± 0.39 µg/mL; IC50 ± SD, A549 [4]: 34.44 ± 0.75 µg/mL; IC50 ± SD, CCD-1059-Sk [5]: 27.27 ± 1.05 µg/mL; MIC (S. aureus ATCC 25923; [14]): 500 µg/mL; MIC [6, 15]: 500 µg/mL; MIC (M. luteus ATCC 10240; [16]): 250 µg/mL; MIC (E. faecalis ATCC 29212; [17]): 1000 µg/mL; MIC (B. subtilis ATCC 6633; [18]): 500 µg/mL; MIC (B. cereus ATCC 10876; [19]): 500 µg/mL; MIC [1]: 1000 µg/mL; MIC (E. coli ATCC 25922; Gram-negative): 1000 µg/mL; MIC (P. mirabilis ATCC 12453; Gram-negative): 1000 µg/mL; MIC (K. pneumoniae ATCC 13883; Gram-negative): 1000 µg/mL; MIC (P. aeruginosa ATCC 9027; Gram-negative): >1000 µg/mL"
[Cl][Zn-2]1([Cl])[n+]2cccc(c2)-c2nc3c(ccc[n+]3[Zn-2]([Cl])([Cl])[n+]3cccc(c3)-c3nc4c(ccc[n+]41)[nH]3)[nH]2 [Complex C3],,,,,,>1000,>1000,>1000,,,,,,,,,,,,,"IC50 ± SD, T98G [2]: 46.54 ± 1.86 µg/mL; IC50 ± SD, SK-N-AS [3]: 41.60 ± 1.93 µg/mL; IC50 ± SD, A549 [4]: 41.34 ± 2.17 µg/mL; IC50 ± SD, CCD-1059-Sk [5]: 30.84 ± 1.11 µg/mL; MIC (S. aureus ATCC 25923; [14]): 1000 µg/mL; MIC [6, 15]: 1000 µg/mL; MIC (M. luteus ATCC 10240; [16]): 500 µg/mL; MIC (E. faecalis ATCC 29212; [17]): >1000 µg/mL; MIC (B. subtilis ATCC 6633; [18]): >1000 µg/mL; MIC (B. cereus ATCC 10876; [19]): >1000 µg/mL; MIC [1]: >1000 µg/mL; MIC (E. coli ATCC 25922; Gram-negative): >1000 µg/mL; MIC (P. mirabilis ATCC 12453; Gram-negative): >1000 µg/mL; MIC (K. pneumoniae ATCC 13883; Gram-negative): >1000 µg/mL; MIC (P. aeruginosa ATCC 9027; Gram-negative): >1000 µg/mL"
c1cc(-c2nc3ccncc3[nH]2)ccn1 [Complex L1],> 1000,> 1000,> 1000,> 1000,> 1000,,,,41.2 ± 2.3,> 100,> 100,> 100,> 1000,> 1000,500,> 1000,> 1000,> 1000,> 1000,> 1000,"MIC [7, 28]: > 1000 µg/mL"
c1cnc2[nH]c(-c3ccncc3)nc2c1 [Complex L2],1000,1000,1000,> 1000,> 1000,,,,35 ± 1.44,81.3 ± 3.31,43.1 ± 2.17,> 100,1000,1000,250,1000,500,250,> 1000,1000,"MIC [7, 28]: > 1000 µg/mL"
Brc1cnc2[nH]c(-c3cccnc3)nc2c1 [Complex L4],> 1000,> 1000,> 1000,> 1000,> 1000,,,,> 100,> 100,> 100,> 100,> 1000,1000,> 1000,1000,1000,1000,> 1000,500,"MIC [7, 28]: 1000 µg/mL"
"COc1cc([C@@H]2c3cc4c(cc3[C@@H](O[C@@H]3O[C@@H]5CO[C@@H](C)O[C@H]5[C@H](O)[C@H]3O)[C@H]3COC(=O)[C@H]23)OCO4)cc(OC)c1O [Etoposide, reference compound]",,,,,,,,,> 100,67.8 ± 2.03,> 100,> 100,,,,,,,,,"median inhibitory concentration (IC50), A549 [8]: 115 µg/mL"
"C[C@@H]1[C@H](O)[C@@H](C)/C=C/C=C/CC/C=C/C=C/C=C/C=C/C(O[C@H]2O[C@H](C)[C@@H](O)[C@H](N)[C@@H]2O)CC2O[C@](O)(CC(O)C(O)CCC(O)CC(O)CC(O)CC(=O)O[C@H]1C)CC(O)C2C(=O)O (stereo partly shown) [Nys, nystatin, reference compound]",,,,,,0.48,0.24,0.24,,,,,,,,,,,,,
"CN[C@H](CC(C)C)C(=O)N[C@H]1C(=O)N[C@@H](CC(N)=O)C(=O)N[C@H]2C(=O)N[C@H]3C(=O)N[C@H](C(=O)N[C@H](C(=O)O)c4cc(O)cc(O)c4-c4cc3ccc4O)[C@H](O)c3ccc(c(Cl)c3)Oc3cc2cc(c3O[C@@H]2O[C@H](CO)[C@@H](O)[C@H](O)[C@H]2O[C@H]2C[C@](C)(N)[C@H](O)[C@H](C)O2)Oc2ccc(cc2Cl)[C@H]1O [Van, Vancomycin, reference compound]",,,,,,,,,,,,,,,,,,,,,"MIC (S. aureus ATCC 25923; Staphylococcus aureus, ATCC25923): 0.98 µg/mL; MIC ([6]; Staphylococcus epidermidis, ATCC12228): 0.98 µg/mL; MIC (M. luteus ATCC 10240; Micrococcus luteus, ATCC10240): 0.12 µg/mL; MIC (E. faecalis ATCC 29212; Enterococcus faecalis, ATCC29212): 1.95 µg/mL; MIC (B. subtilis ATCC 6633; Bacillus subtilis, ATCC6633): 0.24 µg/mL; MIC (B. cereus ATCC 10876; Bacillus cereus, ATCC10876): 0.98 µg/mL"
